The text below walks through data of publication PMC11587510, “Aromatic Amino Acid Hydroxylases as Off-Targets of Histone Deacetylase Inhibitors” (ACS Chemical Neuroscience, 2024).

Molecules are shown by their SMILES. “And” between values parts separate entries of the source, which are not always exact repeats. Equal values may be shown once. Read-outs that look alike come from different tables or passages of the source. A value given as a limit tells only on which side of the number the result lay.

Assay [1] concerns the target T1, doubly truncated human TPH1 (ΔNH102-ΔCOOH402) (Homo sapiens, UniProt P17752).
T1 construct: doubly truncated human TPH1 (ΔNH102-ΔCOOH402); made in house; host or cells: E. coli BL21(DE3)
Nature of the assay: TPH1 enzyme activity assay (HPLC, 5-OH-Trp). Conditions: for IC50: best-fit IC50 (± SE), nonlinear regression, N.A. = no activity. The format is biochemical.
Protocol: (§1) TPH1 enzymatic activity assays were performed with the selected hits from the DSF screening in the presence and absence of 50 μM of each compound. The final concentration of DMSO was 0.5% (v/v), and control experiments used 0.5% DMSO in the absence of ligand. Assays were performed in a standard reaction mixture containing 40 mM Hepes pH 7.0, 200 mM NaCl, 0.1 mg/mL catalase, 0.5 mg/mL BSA, 10 μM ferrous ammonium sulfate, and 30 μM L-tryptophan (L-Trp). Compounds were incubated with TPH1 (0.02 mg/mL) in the reaction mixture for 10 min on ice.

Assay [2] has as its target T2, human PAH (Homo sapiens, UniProt P00439).
T2 construct: Full-length human TH isoform 1 (TH1), human PAH, human TPH2, and doubly truncated human TPH1; made in house; host or cells: E. coli TB1
T2 sequence (P00439 1-452): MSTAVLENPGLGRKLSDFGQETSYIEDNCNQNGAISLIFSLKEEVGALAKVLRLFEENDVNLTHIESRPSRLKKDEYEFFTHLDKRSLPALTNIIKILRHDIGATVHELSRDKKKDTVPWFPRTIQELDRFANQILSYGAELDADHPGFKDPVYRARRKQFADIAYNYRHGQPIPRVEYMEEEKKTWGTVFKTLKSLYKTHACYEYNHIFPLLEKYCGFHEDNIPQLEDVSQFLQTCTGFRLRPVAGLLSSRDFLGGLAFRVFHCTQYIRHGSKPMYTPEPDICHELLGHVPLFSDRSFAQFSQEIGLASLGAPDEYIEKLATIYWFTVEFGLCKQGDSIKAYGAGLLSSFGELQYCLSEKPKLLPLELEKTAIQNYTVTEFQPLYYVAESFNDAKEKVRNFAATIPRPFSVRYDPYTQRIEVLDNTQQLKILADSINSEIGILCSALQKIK
The experiment in a line: PAH enzyme activity assay (HPLC, L-Tyr). The format is biochemical. Conditions: best-fit IC50 (± SE), nonlinear regression; N.A. = no activity; read-out: IC50 (μM) PAH.

For assay [3], the system named is HDAC 1. Conditions: cited from earlier work.
Assay [4] has as its target T3, human TPH2 (Homo sapiens, UniProt Q8IWU9).
T3 construct: Full-length human TH isoform 1 (TH1), human PAH, human TPH2, and doubly truncated human TPH1; MBP (cleaved yes); made in house; host or cells: E. coli BL21(DE3)
T3 sequence (Q8IWU9 1-490): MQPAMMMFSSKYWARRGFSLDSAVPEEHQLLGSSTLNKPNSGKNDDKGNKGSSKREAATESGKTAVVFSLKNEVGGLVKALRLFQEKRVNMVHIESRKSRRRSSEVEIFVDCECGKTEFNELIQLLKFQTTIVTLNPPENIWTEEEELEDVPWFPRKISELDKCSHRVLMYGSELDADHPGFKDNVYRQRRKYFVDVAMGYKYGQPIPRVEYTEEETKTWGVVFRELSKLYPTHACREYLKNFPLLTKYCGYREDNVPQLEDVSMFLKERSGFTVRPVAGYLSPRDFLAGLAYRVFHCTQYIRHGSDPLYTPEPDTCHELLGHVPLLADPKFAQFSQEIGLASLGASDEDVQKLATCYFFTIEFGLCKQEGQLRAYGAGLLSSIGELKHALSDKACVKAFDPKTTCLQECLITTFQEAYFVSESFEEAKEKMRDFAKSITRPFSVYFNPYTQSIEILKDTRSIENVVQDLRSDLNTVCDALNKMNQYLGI
Nature of the assay: TPH2 enzyme activity assay (HPLC). The format is biochemical. Conditions: best-fit IC50 (± SE), nonlinear regression; N.A. = no activity.
Protocol: as §1

Assay [5] relates to HDAC 6. Conditions: cited from earlier work.
Assay [6] deals with T4, human TH isoform 1 (TH1) (Homo sapiens, UniProt P07101).
T4 construct: Full-length human TH isoform 1 (TH1); His6-ZZ fusion partner (one of the two preparations only) (cleaved yes); made in house; host or cells: E. coli BL21(DE3) pLysS (pET3a) or BL21 CodonPlus (pET-ZZ-1a)
The experiment in a line: TH enzyme activity assay (HPLC, L-DOPA). It is filed as biochemical. Conditions: best-fit IC50 (± SE), nonlinear regression; N.A. = no activity. The procedure:
The activity of purified PAH, TH, TPH1, and TPH2 was measured using high-performance liquid chromatography (HPLC) as previously described.[50],[56],[57]
TH activities were performed in a standard reaction mixture containing 40 mM Hepes (pH 7.0), 0.1 mg/mL catalase, 10 μM ferrous ammonium sulfate, and 50 μM L-Tyr. Compounds were incubated with TH (0.01 mg/mL) in the reaction mixture for 10 min on ice. The enzymatic reaction was initiated by adding 200 μM BH4 and 2 mM DTT (final concentrations) and stopped by precipitation with 2% (v/v) acetic acid in ethanol after 5 min at 37 °C. The product, L-DOPA, was quantified by HPLC utilizing a fluorescence monitor set at 281 and 314 nm for excitation and emission, respectively.
GraphPad Prism (version 10; La Jolla, CA) was used for analyzing the enzyme inhibition data.

Assay [7] deals with T5, TPH1 (Homo sapiens, UniProt P17752).
T5 construct: doubly truncated human TPH1 (ΔNH102-ΔCOOH402); made in house; host or cells: E. coli BL21(DE3)
Nature of the assay: Differential scanning fluorimetry (DSF) thermal stability assay. It is filed as binding. Conditions: for Tm (°C) ± SD (°C), primary screen: 0.075 mg/mL TPH1, 0.5% DMSO, three independent measurements (a: duplicates); for Kd: estimated from DSF dose-response, 2% DMSO, read-out: apparent KD (μM), dose-response. The procedure: A fluorescence-based thermal stability assay (differential scanning fluorimetry, DSF) was used for testing the effects of HDIs on the thermal stability of TPH1.
For initial high throughput screening (HTS), compounds were prepared at a concentration of 10 mM (in some cases, 5 mM) in 100% DMSO. Initial HTS screening was performed on TPH1 with and without compounds using a LightCycler 480 Real-Time PCR System (Roche Applied Science). TPH1 was diluted to 0.075 mg/mL in 50 mM Tris pH 8.0, 200 mM NaCl, 0.5 mM TCEP, and 5% glycerol with 5x SYPRO Orange. Compounds were added to a final concentration of 50 μM. Controls with 0.5% DMSO were performed on each 384-well microplate. Unfolding curves were recorded from 20 to 95 °C at a scan rate of 2 °C/min and monitored at excitation = 465 nm and emission = 610 nm. Selected hits were validated further by serial dilution from 250 μM to 122 nM, keeping the DMSO concentration constant at 2%.
DSF data were analyzed using HTSDSF Explorer.[55] Melting temperature (Tm) was calculated from the maximum value of the first derivative of the unfolding curve. ΔTm (Tm with compound–averaged Tm in DMSO controls) was plotted for all validated curves and a threshold of 2 °C was set (typically, cutoff at ΔTm = 3-fold the SD of the Tm of the DMSO control).
Preliminary binding constants (KD) were calculated by fitting data to the equation [drawing 1] where ΔH0 is the enthalpy of the unfolding of the protein in the presence of ligand ([L]), and R is the gas constant.

The test system of assay [8] is HDAC 8. Conditions: human recombinant HDAC, cited from earlier work.
Where [9] appears, read: human recombinant HDAC, ref 1 (PMID: 26443078).

T4 sequence (P07101 1-497 isoform P07101-3): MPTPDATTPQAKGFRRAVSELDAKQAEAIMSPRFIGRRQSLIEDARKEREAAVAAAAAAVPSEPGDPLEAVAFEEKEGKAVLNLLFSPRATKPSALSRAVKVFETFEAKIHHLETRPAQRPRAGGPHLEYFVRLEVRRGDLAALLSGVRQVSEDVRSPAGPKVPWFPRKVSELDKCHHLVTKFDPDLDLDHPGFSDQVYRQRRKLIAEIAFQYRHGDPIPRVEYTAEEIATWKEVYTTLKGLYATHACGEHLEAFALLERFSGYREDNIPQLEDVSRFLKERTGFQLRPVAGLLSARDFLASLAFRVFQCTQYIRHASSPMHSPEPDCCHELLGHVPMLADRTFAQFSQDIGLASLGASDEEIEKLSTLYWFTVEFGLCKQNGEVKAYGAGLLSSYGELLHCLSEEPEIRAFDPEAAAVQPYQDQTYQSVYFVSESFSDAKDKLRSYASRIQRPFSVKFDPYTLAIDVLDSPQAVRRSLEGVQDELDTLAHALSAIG
T1 sequence (P17752 102-402, stated change not applied): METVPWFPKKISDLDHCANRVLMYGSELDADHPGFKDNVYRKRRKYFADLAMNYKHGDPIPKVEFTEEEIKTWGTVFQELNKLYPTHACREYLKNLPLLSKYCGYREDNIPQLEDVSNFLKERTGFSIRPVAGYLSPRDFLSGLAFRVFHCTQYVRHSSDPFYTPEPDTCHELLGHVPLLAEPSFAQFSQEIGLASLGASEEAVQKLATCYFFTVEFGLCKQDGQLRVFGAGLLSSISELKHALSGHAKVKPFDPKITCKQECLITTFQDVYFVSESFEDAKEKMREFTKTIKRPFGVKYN
T5 sequence (P17752 102-402): as the sequence (P17752 102-402, stated change not applied) above

The term IC50 denotes the midpoint of a concentration-inhibition curve. For `O=C(NO)c1ccc(Cl)c(C(=O)Nc2ccc(Cl)cc2)c1` [EG22, 4-Chloro-3-(4-chlorophenylcarbamoyl)-N-hydroxybenzamide], the 50% inhibitory concentration (IC50) in assay [1] was 35.8 µM; in assay [2], 0.89 µM and 0.9 µM; in assay [4] it was 10.7 µM; in assay [6], 14.7 µM; in assay [8] (ref 4 (PMID: 34392190)), 0.18 ± 0.05 µM. Besides, the “inhibition of TPH1 activity at 50 μM” value in assay [1] (compound 50 μM, 0.5% DMSO) is “more than 50%”. Also, the “HDAC 1 % inhibition @ 1 μM” value in assay [3] (@ 1 μM, ref 4 (PMID: 34392190)) is reported as 20 ± 1%. In addition, in assay [5] (@ 1 μM, ref 4 (PMID: 34392190)), the “HDAC 6 % inhibition @ 1 μM” value is 94 ± 4%. In addition, in assay [7] (DSF, 50 μM compound), the “Tm (°C) ± SD (°C), primary screen” value is 59.4 ± 0.3 °C. The “ΔTm (°C) ± SD (°C), primary screen” value in assay [7] (DSF, 50 μM compound, vs averaged Tm of 0.5% DMSO controls) came to 3.9 ± 0.2 °C. Besides, the Kd in assay [7] was 15.2 µM.

As usually defined, the inhibition is the percentage by which the read-out fell short of the control. Read a low inhibition as a response near the control. In general, ΔTm refers to the shift of the melting midpoint relative to a reference. As to `Cc1[nH]c2ccccc2c1CCNCc1ccc(/C=C/C(=O)NO)cc1` [panobinostat, reference compound], the half-inhibitory concentration (IC50) in assay [1] is […]; in assay [2] it was 0.57 µM and 0.6 µM; in assay [3] (setting [9]), […]; in assay [4] it was 43.6 µM; in assay [5] (setting [9]), […]; in assay [6] it was 8.67 µM and 8.7 µM. Further, the half-maximal inhibitory concentration (IC50) in assay [8] (ref 1 (PMID: 26443078)) is […]. For the same compound, the inhibition at 50 µM in assay [1] (compound 50 μM, 0.5% DMSO) is greater than 50%. Besides, the “Tm (°C) ± SD (°C), primary screen” value in assay [7] (DSF, 50 μM compound) is 56.0 ± 0.0 °C. Further, in assay [7] (DSF, 50 μM compound, vs averaged Tm of 0.5% DMSO controls, read-out: ΔTm (°C) ± SD (°C), primary screen), the ΔTm at 50 µM turned out to be […]. Also, the Kd in assay [7] was 15.6 µM.
